pIC50: −log10 of the molar value.
Tested on: Jurkat cells
Assay: Dose-response of doxorubicin on Jurkat cells cultured on droplet microarrays (DMA) with different surfaces or in microtiter plates; viability by Calcein AM / Propidium Iodide staining
Type: cell-based
Settings: Homo sapiens
Procedure: Jurkat cells were treated with anti-cancer drug doxorubicin on DMAs containing different surfaces and coatings ((1) non-polymer surface with gelatine coating, (2) non-polymer surface without coating, (3) polymer surface with gelatine coating, which is necessary for culturing of cells on polymer, but not on non-polymer surface). Cells were cultured in 100 nL droplets volume and 100 cells per droplet on 1 mm square hydrophilic spots. Cells were incubated with drug for 24 hours. Afterwards cells were stained with Calcein AM (stains live cells) and Propidium Iodide (stains dead cells) to estimate viability of cells. DMAs were imaged using Olympus IX microscope. Image analysis was performed in Imaged software.
IC50 values were calculated in Origin software by fitting the dose-response curves shown in (a).

- pIC50 (24 h, Surface: Non-polymer DMA (without coating), 100 nL droplets, 100 cells per droplet, 24 hours): 6.72
- pIC50 (24 h, Surface: Non-polymer DMA / gelatin, 100 nL droplets, 100 cells per droplet, 24 hours): 4.45
- pIC50 (24 h, Surface: Polymer DMA / gelatin (HEMA-EDMA polymer), 100 nL droplets, 100 cells per droplet, 24 hours): 3.69
- pIC50 (Surface: Microtiter plate): 6.70
Compound: COc1cccc2c1C(=O)c1c(O)c3c(c(O)c1C2=O)C[C@@](O)(C(=O)CO)C[C@@H]3O[C@H]1C[C@H](N)[C@H](O)[C@H](C)O1 [doxorubicin]

Reference: patent EP3733277B1, “PATTERNED SUBSTRATE HAVING HYDROPHILIC AND HYDROPHOBIC AREAS” (Karlsruher Institut für Technologie (KIT), priority 2019, dated 2020)
